Measured values as given in patent US8420144B2, “Kokumi-imparting agent, method of using, and compositions containing same” (Ajinomoto Co., Inc., priority 2005, dated 2013).

Legend:
Assay type in all cases: in vivo, human
[1] = Quantitative sensory evaluation test: imparting kokumi to consomme soup; details: n=12, 0 control, 3 intense, 5 extremely intense
Procedure: The intensity of activity for imparting kokumi to consomme soup of each peptide having confirmed calcium receptor activation activity was measured by a quantitative sensory evaluation test, performed as follows: Consomme soup was prepared by dissolving consomme soup powder (35% of sodium chloride, 18% of sodium glutamate, 0.2% of inosine monophosphate, 0.3% of white pepper powder, 0.5% of black pepper powder, 8.0% of beef extract powder, 3.0% of white wine powder, 2.0% of celery powder, 8.0% of Chinese cabbage extract powder, 2.5% of onion extract powder, […]) at a concentration of 5 g/dl. To this consomme soup, samples of either γ-Glu-Cys-Gly (glutathione) or γ-Glu-Val-Gly was added to a concentration of 0.0001 to 1 g/dl, and the intensity of the kokumi-imparting activity was measured for each sample. The consomme soup with the samples that became acidic after dissolution of the samples with respect to the consomme soup without the samples was adjusted with NaOH to pH not lower or higher by 0.2 than pH of the consomme soup without the samples before use. Sensory evaluation scores were used for evaluation as follows: 0 points for the control sample, 3 points for intense activity as compared to the control, and 5 points for extremely intense activity as compared to the control, and the test was performed with n=12.

[2] = Quantitative sensory evaluation test: kokumi-imparting activity of peptides combined with known calcium receptor activators or additives; details: for Intensity of kokumi: Aftertaste / Intensity of kokumi: First and middle taste: alone, n=12, 0 control, 3 intense, 6 extremely intense
Procedure: The intensity of the kokumi-imparting activity of each peptide having confirmed calcium receptor activation activity and a known calcium receptor activator used in combination was measured by a quantitative sensory evaluation test, performed as follows: Samples of γ-Glu-Cys-Gly (glutathione) or γ-Glu-Val-Gly (0.0001 to 1 g/dl), or these samples combined with a calcium receptor activator such as calcium lactate, protamine or polylysine, or GABA (addition concentration: 0.0001 to 1 g/dl) were added to distilled water containing sodium glutamate (0.05 g/dl), inosine monophosphate (0.05 g/dl), and sodium chloride (0.5 g/dl), and the intensity of the kokumi-imparting activity was measured. Sample solutions that became acidic after dissolution of the samples were adjusted to pH 6.8 to 7.2 with NaOH before use. Sensory evaluation scores were used to evaluate as follows: 0 points for the control sample, 3 points for intense activity (as intensity of 0.05 g/dl γ-Glu-Cys-Gly and 0.005 g/dl γ-Glu-Val-Gly), and 6 points for extremely intense activity (as twice intensity of 0.05 g/dl γ-Glu-Cys-Gly and 0.005 g/dl γ-Glu-Val-Gly), and the test was performed with n=12.

[3] = Quantitative sensory evaluation test of activity on basic tastes (umami, sweet, salty, sour standards); details: n=12, 0 control, 1 fairly intense, 2 intense; for Sour taste (intensity of activity on basic tastes): citric acid 0.05 g/dl standard; for Salty taste (intensity of activity on basic tastes): sodium chloride 0.7 g/dl standard; for Umami (intensity of activity on basic tastes): sodium glutamate 0.2 g/dl standard; for Sweet taste (intensity of activity on basic tastes): sucrose 5 g/dl standard
Procedure: The intensity of the activity on basic tastes of each peptide having confirmed calcium receptor activation activity was measured by a quantitative sensory evaluation test, performed as follows: Samples of either γ-Glu-Cys-Gly (glutathione) or γ-Glu-Val-Gly were added to distilled water (0.0001 to 1 g/dl) containing sodium glutamate (0.2 g/dl) for the umami standard, sucrose (5 g/dl) for the sweet taste standard, sodium chloride (0.7 g/dl) or the salty taste standard, or citric acid (0.05 g/dl) for the sour taste standard, and the intensity of the activity on basic tastes was measured for each sample.
Sample solutions that became acidic after dissolution of the samples with respect to the standard solutions without the samples were adjusted with NaOH to pH not lower or higher by 0.2 than pH of the standard solutions before use. Sensory evaluation scores were used to evaluate the intensity as follows: 0 points for the control sample, 1 point for fairly intense activity as compared to the control, and 2 points for intense activity as compared to the control, and the test was performed with n=12.

[4] = Quantitative sensory evaluation test: imparting kokumi to corn soup; details: n=12, 0 control, 3 intense, 5 extremely intense
Procedure: The intensity of the activity for imparting kokumi to corn soup of each peptide having confirmed calcium receptor activation activity was measured by a quantitative sensory evaluation test, performed as follows: to commercially available corn soup, samples of either γ-Glu-Cys-Gly (glutathione) or γ-Glu-Val-Gly were added to a concentration of 0.0001 to 1 g/dl, and the intensity of the kokumi-imparting activity was measured for each sample. The corn soup with the samples that became acidic after dissolution of the samples with respect to the corn soup without the samples was adjusted with NaOH to pH not lower or higher by 0.2 than pH of the corn soup without the samples before use. Sensory evaluation scores were used to evaluate as follows: 0 points for the control sample, 3 points for intense activity as compared to the control, and 5 points for extremely intense activity as compared to the control, and the test was performed with n=12.

[5] = Quantitative sensory evaluation test of kokumi-imparting activity in water with sodium glutamate, inosine monophosphate and sodium chloride; parameters: key: *: Unmeasurable: Kokumi-imparting activity was too strong and could not be measured by the sensory evaluation
Procedure: Sample solutions that became acidic after dissolution of the samples were adjusted to pH 6.8 to 7.2 with NaOH before use. Sensory evaluation scores were used for evaluation based on the control sample (0 points) and the glutathione sample (3 points), and the test was performed with n=3.
The sample solutions that became acidic after dissolution of the samples were adjusted to pH 6.8 to 7.2 with NaOH before use. Sensory evaluation scores were used for evaluation based on the control sample (0 points) and the glutathione sample (3 points), and the test was performed with n=5.
Sample solutions that became acidic after dissolution of the samples were adjusted to pH 6.8 to 7.2 with NaOH before use. Sensory evaluation scores were used for evaluation based on the control sample (0 points) and the glutathione sample (3 points), and the test was performed with n=12.

[6] = Quantitative sensory evaluation test: imparting kokumi to curry sauce; details: n=12, 0 control, 3 intense, 5 extremely intense
Procedure: The intensity of the activity for imparting kokumi to curry sauce of each peptide having confirmed calcium receptor activation activity was measured by a quantitative sensory evaluation test, performed as follows: to curry sauce prepared in a conventional manner by using commercially available curry roux, samples of either γ-Glu-Cys-Gly (glutathione) or γ-Glu-Val-Gly were added to a concentration of 0.0001 to 1 g/dl, and the intensity of kokumi-imparting activity was measured for each sample. The curry sauces with the samples that became acidic after dissolution of the samples with respect to the curry soup without the samples were adjusted with NaOH to pH not lower or higher by 0.2 than pH of the curry soup without the samples before use. Sensory evaluation scores were used to evaluate as follows: 0 points for the control sample, 3 points for intense activity as compared to the control, and 5 points for extremely intense activity as compared to the control, and the test was performed with n=12.

[7] = Table 6, 0.01 g/dl, n=5, control 0, glutathione 3 points
[8] = Table 7, 0.01 g/dl, n=12, control 0, glutathione 3 points
[9] = Table 5, 0.1 g/dl, n=3, control 0, glutathione 3 points
[10] = Table 6, 0.1 g/dl, n=5, control 0, glutathione 3 points
[11] = Table 7, 0.1 g/dl, n=12, control 0, glutathione 3 points

CC(C)[C@H](NC(=O)CC[C@H](N)C(=O)O)C(=O)NCC(=O)O [γ-Glu-Val-Gly]
Intensity of kokumi: Aftertaste ([1]; 0.0005 g/dl): 3.0 points
Intensity of kokumi: First and middle taste ([1]; 0.0005 g/dl): 2.5 points
Intensity of kokumi: Aftertaste ([1]; 0.001 g/dl): 3.5 points
Intensity of kokumi: First and middle taste ([1]; 0.001 g/dl): 3.0 points
Intensity of kokumi: Aftertaste ([1]; 0.01 g/dl): 5.0 points
Intensity of kokumi: First and middle taste ([1]; 0.01 g/dl): 5.0 points
Intensity of kokumi: Aftertaste ([1]; 0.1 g/dl): 5.0 points
Intensity of kokumi: First and middle taste ([1]; 0.1 g/dl): 5.0 points
Intensity of kokumi: Aftertaste ([2]; 0.005 g/dl): 3.0 points
Intensity of kokumi: First and middle taste ([2]; 0.005 g/dl): 3.0 points
Sour taste (intensity of activity on basic tastes) ([3]; 0.005 g/dl): 0.5 points
Salty taste (intensity of activity on basic tastes) ([3]; 0.005 g/dl): 0.5 points
Umami (intensity of activity on basic tastes) ([3]; 0.005 g/dl): 0.7 points
Sweet taste (intensity of activity on basic tastes) ([3]; 0.005 g/dl): 0.5 points
Sour taste (intensity of activity on basic tastes) ([3]; 0.01 g/dl): 1.0 points
Salty taste (intensity of activity on basic tastes) ([3]; 0.01 g/dl): 1.0 points
Umami (intensity of activity on basic tastes) ([3]; 0.01 g/dl): 1.5 points
Sweet taste (intensity of activity on basic tastes) ([3]; 0.01 g/dl): 1.0 points
Intensity of kokumi: Aftertaste ([4]; 0.0005 g/dl): 3.0 points
Intensity of kokumi: First and middle taste ([4]; 0.0005 g/dl): 2.5 points
Intensity of kokumi: Aftertaste ([4]; 0.001 g/dl): 4.0 points
Intensity of kokumi: First and middle taste ([4]; 0.001 g/dl): 3.5 points
Intensity of kokumi: Aftertaste ([4]; 0.01 g/dl): 5.0 points
Intensity of kokumi: First and middle taste ([4]; 0.01 g/dl): 4.5 points
Intensity of kokumi: Aftertaste ([4]; 0.1 g/dl): 5.0 points
Intensity of kokumi: First and middle taste ([4]; 0.1 g/dl): 5.0 points
Intensity of kokumi: Aftertaste [5, 7]: 3.0 points
Intensity of kokumi: First and middle taste [5, 7]: 3.0 points
Intensity of kokumi: Aftertaste ([5]; Table 6, 0.1 g/dl, n=5): *
Intensity of kokumi: First and middle taste ([5]; Table 6, 0.1 g/dl, n=5): *
Intensity of kokumi: Aftertaste [5, 8]: 3.0 points
Intensity of kokumi: First and middle taste [5, 8]: 3.0 points
Intensity of kokumi: Aftertaste ([6]; 0.001 g/dl): 3.0 points
Intensity of kokumi: First and middle taste ([6]; 0.001 g/dl): 2.5 points
Intensity of kokumi: Aftertaste ([6]; 0.005 g/dl): 4.0 points
Intensity of kokumi: First and middle taste ([6]; 0.005 g/dl): 3.5 points
Intensity of kokumi: Aftertaste ([6]; 0.01 g/dl): 5.0 points
Intensity of kokumi: First and middle taste ([6]; 0.01 g/dl): 5.0 points
Intensity of kokumi: Aftertaste ([6]; 0.1 g/dl): 5.0 points
Intensity of kokumi: First and middle taste ([6]; 0.1 g/dl): 5.0 points

N[C@@H](CCC(=O)N[C@@H](CS)C(=O)NCC(=O)O)C(=O)O [γ-Glu-Cys-Gly, reference compound]
Intensity of kokumi: Aftertaste ([1]; 0.01 g/dl): 3.0 points
Intensity of kokumi: First and middle taste ([1]; 0.01 g/dl): 3.0 points
Intensity of kokumi: Aftertaste ([2]; 0.05 g/dl): 3.0 points
Intensity of kokumi: First and middle taste ([2]; 0.05 g/dl): 3.0 points
kokumi-imparting activity when used with a known calcium receptor activator or the like such as calcium ([2]; conclusion from Table 13): can have improved kokumi-imparting activity
Sour taste (intensity of activity on basic tastes) ([3]; 0.10 g/dl): 1.5 points
Salty taste (intensity of activity on basic tastes) ([3]; 0.10 g/dl): 0.2 points
Umami (intensity of activity on basic tastes) ([3]; 0.10 g/dl): 0.7 points
Sweet taste (intensity of activity on basic tastes) ([3]; 0.10 g/dl): 1.5 points
Intensity of kokumi: Aftertaste ([4]; 0.01 g/dl): 3.0 points
Intensity of kokumi: First and middle taste ([4]; 0.01 g/dl): 3.0 points
Intensity of kokumi: Aftertaste [5, 9]: 3.0 points
Intensity of kokumi: First and middle taste [5, 9]: 3.0 points
Intensity of kokumi: Aftertaste [5, 10]: 3.0 points
Intensity of kokumi: First and middle taste [5, 10]: 3.0 points
Intensity of kokumi: Aftertaste [5, 11]: 3.0 points
Intensity of kokumi: First and middle taste [5, 11]: 3.0 points
Intensity of kokumi: Aftertaste ([6]; 0.01 g/dl): 3.0 points
Intensity of kokumi: First and middle taste ([6]; 0.01 g/dl): 3.0 points
